# Reference: patent US20180371046A1, “Therapy for Lower Urinary Tract Dysfunctions” (University of Pittsburgh - Of the Commonwealth System of …, priority 2017, published 2018)
# “Also recorded” adds a separate entry of the source.
# Columns and labels:
# [1] = system: irradiated mouse bladder (chronic radiation cystitis); assay: Decerebrated cystometry with simultaneous EUS electromyography in the selective bladder irradiation (chronic radiation cystitis) mouse model; format: in vivo; conditions: mice 9 weeks after 10 Gy selective bladder irradiation
# Procedure: FIG. 4. Cystometric and EUS electromyographic assessment of irradiated mice with and without relaxin treatment. A. Selective bladder irradiation model. B-D. Bladder and sphincter functions were assessed using decerebrated cystometry with simultaneous electromyography (EMG; green traces) at 9 weeks following bladder irradiation.
# (§1) A mouse model was developed to mimic chronic radiation cystitis. As a surrogate to chronic radiation cystitis in the mouse, a laparotomy was performed where the bladder was briefly withdrawn for selective high dose (10 Gy) irradiation (FIG. 4(A)). Delivered to the pelvic region such a dose could be lethal (LD50≅8 Gy). […] Moreover, following spinal cord injury, rodents can develop detrusor-sphincter-dyssynergia (DSD) which also occurs in humans. […] This is the first application of relaxin to treat bladder dysfunction due to irradiation damage or any urinary tract disease. The data also are by far the most impressive reversal/treatment for radiation cystitis.
# [2] = system: irradiated mouse bladder detrusor; assay: Length-tension profiles and contractile responses of irradiated mouse bladders after relaxin treatment; format: in vivo; conditions: relaxin treated
# Text: (§2) FIG. 5A-5D. Relaxin treatment improves detrusor contractility and reduces bladder fibrosis in mouse bladders with chronic stage radiation cystitis. FIG. 5A. Length-tension profiles from irradiated (9-weeks post exposure) mouse bladders with and without relaxin treatment. […] FIG. 5B. […] FIG. 5C. […] Expression of the L-type Ca^2+ channel subunit, CaV1.2, was examined by immunohistochemistry. […] FIG. 5D.
# as §1
# aged rat bladder [3] = assay: Length-tension studies and agonist/EFS responses of bladder strips from aged and adult rats; format: in vivo
# Procedure: Adult (9 months old) and aged (24 months old) Fisher 344/Brown Norway F1 (F-344) male rats were used in this study. Six out of twelve rats in each age group were treated with relaxin (400 μg/kg/day) or vehicle which were infused by osmotic mini-pumps (ALZET) for 14 days, after which bladders were excised and cut from outlet to dome along the midline ventral and dorsal aspects to form two strips.
# One strip was placed in a recording chamber with oxygenated Krebs solution. The base was pinned to a fixed platform and the dome connected to a tension transducer mounted on a programmable stepper motor. Bladder strips were stretched longitudinally in 500 μm increments and baseline tension allowed to stabilize (passive tension). Three field stimulation (20 Hz, 3 sec train, 0.5 ms pulse width, 15V output) contractions were performed at each stretch to determine active force generation.
# (§3) Aged (24 month) and adult (9 month) male and female F344 rats were administered recombinant human relaxin-2 (400 μg/kg/day) or saline for 14-days via subcutaneous osmotic pumps. At the end of the treatment period, bladders were isolated. Contractile function was assessed in bladder muscle strips using length-tension relationship and responses to agonists and electrical field stimulation. Bladder wall morphology was examined in histological sections stained for collagen and elastin.
# (§4) Aged (24 month) and adult (9 month) male and female F344 rats (obtained through the aged rodent colony of the National Institute on Aging) were administered recombinant hRLX2 (400 μg/kg/day) or saline for 14-days via subcutaneous osmotic pumps. At the end of the treatment period, bladders were isolated and contractile function assessed in organ bath experiments using muscle strips to measure length-tension relationships and responses to agonists and electrical field stimulation. Bladder wall morphology was examined in 3 μm-thick histological sections stained for collagen and elastin. The expression of the L-type Ca^2+ channel α-subunit, Cav1.2, and relaxin receptor subtypes, RXFP1 and RXFP2, were determined by immunohistochemistry.
# [4] = system: aged rat prostate / urethra; assay: Histological sections of male rat urethras at the level of the prostate (aged rats, BPH); format: in vivo; conditions: hRLX2 treated vs control, preliminary studies
# Text: FIG. 21. Histological sections of male rat urethras—at the level of the prostate—from control and hRLX2 treated aged rats.
# Benign Prostatic Hyperplasia is a non-malignant enlargement of the prostate and is a condition that frequently affects the elderly male population. BPH in humans can cause constriction of the urethra, outlet obstruction, inflammation, fibrosis and the development of LUTD (Bushman, W. A., et al.: The role of prostate inflammation and fibrosis in lower urinary tract symptoms. Am J Physiol Renal Physiol, 311: F817, 2016). […] However, the therapeutic effects of hRLX2 on BPH itself can still be evaluated in aged animal models. We propose that selective injection of hRLX2 (FIG. 20) to the lateral and ventral lobes (corresponding to the transitional zone of the human prostate) or systemic administration could be performed in aged rats or mice. Following treatment, the prostates could be evaluated histologically for morphological changes such as smooth muscle or extracellular matrix content, signs of inflammation (e.g., mast cell infiltration, edema) or epithelial damage, as that observed in preliminary studies (FIG. 21).
# CaV1.2 [5] = assay: Immunohistochemistry of L-type Ca2+ channel subunit in irradiated mouse bladders; format: in vivo; conditions: relaxin treated, listed as relaxin
# Text: as §2, §1
# [6] = clinical trials in acute heart failure and scleroderma; as high as 250 μg/kg/day; cited from earlier work
# RXFP1 and RXFP2 receptor = conditions: Bathgate et al. 2013; cited from earlier work
# irradiated mouse bladder = assay: Histology and collagen quantification of irradiated mouse bladders; format: in vivo
# Text: as §2, §1
# aged rat bladder [7] = assay: Collagen staining and collagen:tissue ratio in aged and adult rat bladder sections; format: in vivo; conditions: for collagen:tissue ratio / bladder collagen content / deposition: 400 μg/kg/day for 14 days; for bladder collagen content / deposition: aged rats (male where stated)
# Procedure: The other bladder strip was fixed in 10% PFA, embedded in paraffin, cut 5 μm thick, stained for collagen (Sigma HT251) and examined using bright field microscopy (total mag., 400×). The images were obtained at identical conditions and color analysis was performed using the ImageJ software threshold function to discriminate collagen and smooth muscle content.
# as §3, §4
# [8] = system: C57Bl/6 mice with chronic radiation cystitis; assay: Urine spot analysis of irradiated mice; format: in vivo, mouse
# Procedure: FIG. 16. Urine spot analysis from irradiated mice with and without hRLX2 therapy. Mice were placed in metabolic cages with Whatman paper on the floor for 2 hours between 11 AM and 2 PM without access to food and water. Upon completion, filter papers were collected and photographed under UV light.
# Thus, our assessment is that the therapeutic dose of hRLX2 is likely between 80 and 400 μg/kg/day.
# [9] = Plasma hRLX2 level in rats; format: in vivo; conditions: rat, male; SC pump 77 μg/kg/d/14 days
# Cav1.2 [10] = assay: Immunohistochemistry of Cav1.2 in aged rat bladders; format: in vivo; conditions: aged (24 month) rat bladders, 400 μg/kg/day for 14 days
# Text: FIG. 7. Expression of L-type Ca^2+ channels is increased in aged rat bladders following relaxin treatment. Immunohistological staining of aged (>24 month old) rat bladder sections for the L-type Ca^2+ channel al C subunit, Cav1.2α. Expression of Cav1.2α was increased in relaxin-treated rat bladders compared to sham controls, similar to that observed in irradiated mouse bladders (FIG. 5C). […] This emphasizes the heterogeneity of aging related bladder changes.
# as §4
# RXFP2 = RXFP2 (Homo sapiens, UniProt Q8WXD0); conditions: cited from earlier work
# [11] = adult (9 month) male rats, relaxin vs vehicle, 400 μg/kg/day for 14 days
# Chain of RXFP2 (Q8WXD0 whole entry, species assumed): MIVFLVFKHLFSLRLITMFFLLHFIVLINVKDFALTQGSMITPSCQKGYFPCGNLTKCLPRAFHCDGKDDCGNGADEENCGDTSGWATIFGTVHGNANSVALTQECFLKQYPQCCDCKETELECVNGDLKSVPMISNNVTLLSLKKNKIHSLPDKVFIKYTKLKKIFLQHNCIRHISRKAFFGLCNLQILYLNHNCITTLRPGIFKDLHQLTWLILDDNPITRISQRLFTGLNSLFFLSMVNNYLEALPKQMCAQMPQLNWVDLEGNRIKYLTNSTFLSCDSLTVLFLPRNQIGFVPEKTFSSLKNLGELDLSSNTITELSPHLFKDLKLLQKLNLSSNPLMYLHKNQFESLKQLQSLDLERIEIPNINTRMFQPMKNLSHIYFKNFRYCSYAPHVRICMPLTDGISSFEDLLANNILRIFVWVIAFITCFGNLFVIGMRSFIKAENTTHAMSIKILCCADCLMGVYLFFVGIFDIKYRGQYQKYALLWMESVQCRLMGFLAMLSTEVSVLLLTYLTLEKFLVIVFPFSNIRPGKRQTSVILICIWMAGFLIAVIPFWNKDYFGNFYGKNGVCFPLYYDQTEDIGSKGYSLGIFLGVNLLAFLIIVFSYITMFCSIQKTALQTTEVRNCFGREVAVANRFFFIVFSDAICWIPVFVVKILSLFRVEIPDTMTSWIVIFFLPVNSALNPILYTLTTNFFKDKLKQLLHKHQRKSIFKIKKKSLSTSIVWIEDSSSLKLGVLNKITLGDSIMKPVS
molecule,measurement,setting,value
human relaxin-2 [hRLX2],EUS electromyogram: guarding reflex and bursting,[1]; relaxin 400 μg/kg/day sc for 2 weeks from week 7,recovered with relaxin treatment; also recorded: return of a normal guarding reflex and bursting
same,cystometry: voiding function and bladder compliance,[1]; relaxin 400 μg/kg/day sc mini-pump for 2 weeks from week 7,abolished overflow incontinence with a return of voiding function and improved bladder compliance
same,active tension / active force generation (length-tension profile),[2]; 9 weeks post exposure,reversed by relaxin treatment to a profile similar to non-irradiated control mouse bladders; also recorded: increased active force generation
same,passive tension (length-tension profile),[2]; 9 weeks post exposure,reversed by relaxin treatment to a profile similar to non-irradiated control mouse bladders; also recorded: reversed by relaxin
same,"responses to purinergic agonist (ABMA), depolarization (KCl) or electrical field stimulation (EFS)",[2],no significant change
same,contractile response of the detrusor to oxotremorine-M (cholinergic response),[2]; listed as Relaxin,"increased the contractile response of the detrusor to muscarinic receptor agonist, oxotremorine-M"
same,contractile response of the detrusor to oxotremorine-M (cholinergic response),[2]; listed as relaxin,an increase in the cholinergic response
same,compliance and force generation,"aged rat bladder [3]; 24 month-old Fischer F-344 rats, 400 μg/kg/day sc ALZET pumps, 2 weeks (Example 2)",substantial increases in both compliance and force generation
same,active tension generation,aged rat bladder [3]; [11],increased active tension generation compared to controls
same,passive tension profile,aged rat bladder [3]; [11],no significant difference
same,passive tension profile,"aged rat bladder [3]; aged (24 month) rats, male where stated, 400 μg/kg/day sc for 14 days",return of passive tension profiles comparable to adults
same,passive tension profile,"aged rat bladder [3]; aged (24 month) rats, male where stated, 400 μg/kg/day sc for 14 days, listed as Relaxin",return of passive tension profiles comparable to adults
same,passive tension profile,"aged rat bladder [3]; aged (24 month) rats, male where stated, 400 μg/kg/day sc for 14 days, listed as relaxin",passive tension began increasing at a smaller degree of stretch compared to relaxin treated animals; also recorded: decreased the passive tension profile to that of adult animals
same,responses to contractile agonists (ABMA and oxotremorine-M) or depolarization (KCl and EFS),"aged rat bladder [3]; aged and adult rat bladders, relaxin vs sham",no significant change
same,tissue compliance,"aged rat bladder [3]; aged female rats, 400 μg/kg/day for 14 days",nor was it significantly altered
same,active tension generation,"aged rat bladder [3]; aged rats, relaxin vs vehicle/sham, 400 μg/kg/day for 14 days",equivocal; also recorded: no significant changes
same,"prostatic urethra histology (inflammation, columnar epithelium disruption, collagen infiltration, internal urethral sphincter damage)",[4],prevented these adverse changes
same,CaV1.2 expression in the detrusor,CaV1.2 [5],returned by relaxin treatment; also recorded: an increase in the expression of Cav1.2α
same,safety for use in humans,[6],validated its safety for use in humans
same,"affinity, RXFP1 versus RXFP2",RXFP1 and RXFP2 receptor,greater for the RXFP1 than the RXFP2 receptor
same,"bladder wall histology (urothelium, lamina propria, detrusor layer)",irradiated mouse bladder; relaxin treated,"intact urothelium, normal lamina propria and increased thickness of the detrusor layer"
same,collagen content,irradiated mouse bladder; relaxin vs sham treated,significant decrease in collagen content; also recorded: decreased collagen content
same,collagen:tissue ratio,"aged rat bladder [7]; 9 month adult male rats, no significant difference to vehicle",0.33±0.09
same,size of each bladder layer and collagen distribution,"aged rat bladder [7]; 9 month old rats, sham vs relaxin treated",not significantly different
same,collagen:tissue ratio,"aged rat bladder [7]; 24 month aged male rats, p<0.05",0.36±0.08
same,bladder collagen content / deposition,aged rat bladder [7],decreased by hRLX2 treatment
same,bladder collagen content / deposition,aged rat bladder [7]; listed as relaxin,decreased following relaxin treatment; also recorded: significant decrease in collagen content; also recorded: decreases in collagen content
same,detrusor layer thickness and collagen infiltration,"aged rat bladder [7]; aged rats, relaxin treated vs shams",increased detrusor layer thickness and less collagen infiltration compared to shams
same,urine spot analysis: number of spots and voided volumes,"[8]; irradiated mice (10 Gy), 50 μg/kg/day sc osmotic pump, two weeks",small decrease in the number of spots and increase of voided volumes
same,urine spot analysis: voiding pattern,"[8]; irradiated mice (10 Gy), 400 μg/kg/day",voiding pattern identical to those of non-irradiated controls
same,urine spot analysis: voided volumes and number of spots,"[8]; irradiated mice, dose not given","increased voided volumes and decreased the number of spots, restoring normal bladder function"
same,"Plasma level, exogenous",[9],"5,042 ♂ pg/ml"
same,Cav1.2 expression in the detrusor layer,Cav1.2 [10],increased in aged rat bladders following hRLX2 treatment
same,Cav1.2 expression in the detrusor layer,Cav1.2 [10]; listed as Relaxin,increased expression of L-type Ca^2+ channels
same,Cav1.2 expression in the detrusor layer,Cav1.2 [10]; listed as relaxin,increased; also recorded: increases in smooth muscle expression of Cav1.2α
"insulin-like peptide-3 (protein, listed as Homo sapiens) MDPRLPAWALVLLGPALVFALGPAPTPEMREKLCGHHFVRALVRVCGGPRWSTEARRPATGGDQRESHSVSQAGLKLLSSSNPPTLTFQSVGISDVSCYSGWRDDICSMGWWPTVISRWDLACSPCPRPLTITATTVQLPPTLHATAASVAVPNKTC",affinity for RXFP2,RXFP2,highest affinity for RXFP2
